Literature values in US20200245614A1, “AGROCHEMICAL EMULSIFIABLE CONCENTRATE COMPOSITION” (priority 2017, published 2020).

Details: n-octanol/water

Going from `CC1COC(=O)O1` (stereo not shown) [Composition C-12, Propylene carbonate] to `COC(=O)C(C)CCC(=O)N(C)C` (stereo not shown) [Composition C-21, 5-(Dimethylamino)-2-methyl-5-oxopentanoic acid methyl ester], the LogPow value rises from −0.5 to 0.39.

Going from `CCCCCCCCO` [Composition C-24, Octanol] to `CCCCCCCC/C=C\CCCCCCCC(=O)OC` [Composition C-22, Methyl oleate], the LogPow value rises from 3 to 7.45.

Compared with `COC(C)COC(C)CO` (stereo not shown) [Composition C-11, Dipropylene glycol methyl ether], Xylene [Composition B-2] is higher in LogPow value: −0.46 for the first, 3.15 for the second.

Compared with `CCCCOCCOCCO` [Composition C-6, Butyl diglycol], `CCC(C)=O` [methyl ethyl ketone] is lower in LogPow value: 0.56 for the first, 0.29 for the second.

First: CCCCCCCCCCCC(=O)OC [Composition B-5, Methyl laurate]
Second: CC(O)COc1ccccc1 (stereo not shown) [Composition C-19, Phenoxypropanol]
The LogPow value of the first is higher: 5.41 for the first, 1.51 for the second.

First: CC(C)COC(=O)CCCCC(=O)OCC(C)C [Composition B-4, Diisobutyl adipate]
Second: CCCCOC(=O)OCCCC [Composition B-3, Di-n-butyl carbonate]
The LogPow value of the first is higher: 3.70 for the first, 3.47 for the second.

Going from `COCC(C)O` (stereo not shown) [Composition C-9, Propylene glycol monomethyl ether] to `CCCCOCCOCCOCCCC` [Composition C-27, Dibutyl diglycol], the LogPow value rises from −0.342 to 1.92.

First: CCCCOC(C)=O [Composition C-26, Butyl acetate]
Second: CO [methanol]
The LogPow value of the first is higher: 1.82 for the first, −0.82 for the second.

Going from `CC(C)=O` [acetone] to `CCCCN1CCCC1=O` [Composition C-16, N-Butylpyrrolidone], the LogPow value rises from −0.24 to 1.27.

First: CN1CCCC1=O [Composition C-10, N-methyl-2-pyrrolidone]
Second: OC1CCCCC1 [Composition C-4, Cyclohexanol]
The LogPow value of the first is lower: −0.38 for the first, 1.2 for the second.

First: COCCOCCOCCO [Composition C-17, Triethylene glycol monomethyl ether]
Second: CCCCCO [pentanol]
The LogPow value of the first is lower: −1.12 for the first, 1.51 for the second.

Going from `O=C1CCCO1` [Composition C-13, γ-Butyrolactone] to `COCCOCCO` [Composition C-1, Diethylene glycol monomethyl ether], the LogPow value falls from −0.566 to −1.18.

Compared with `O=C1CCCCC1` [Composition C-5, Cyclohexanone], `OCCOCc1ccccc1` [Composition C-20, Benzyl glycol] is higher in LogPow value: 0.86 for the first, 1.11 for the second.

In the case of `CCCCC(CC)COCCOCCO` (stereo not shown) [Composition C-28, 2-ethylhexyl diglycol], the LogPow value is given as 2.

Same assay, conditions: n-octanol/water; listed as gamma-butyl lactone

In the case of `O=C1CCCO1` [Composition C-13, γ-Butyrolactone], the LogPow value is listed as −0.57.
